Where two headings read alike, the source gives them in different places.

For series [1], the system named is Hedgehog protein signaling pathway. In words: Inhibition of SAG-induced alkaline phosphatase activity (differentiation) in C3H10T1/2 cells. The series is classed as cell-based. The following applies: read-out: IC50 (concentration which inhibits 50% of the alkaline phosphatase activity). As to the method:
The compounds of formula (I) to be tested were dissolved in dimethyl sulfoxide until a concentration of 10 mM was obtained, and then stored at a temperature of −20° C. until use.
The pluripotent fibroblast cell line C3H10T1/2 was cultured under the conditions recommended by the American Type Culture Collection (ATCC).
Activation with SAG causes the cell line to differentiate and allows the cells to express alkaline phosphatase. It was thus possible to measure the activity of the Hedgehog protein signaling pathway by measuring the alkaline phosphatase activity.
The C3H10T1/2 cells were seeded onto 96-well plates at a density of 5×10^3 cells per well, 24 hours before the addition of the test compounds at a concentration ranging from 1 nM to 30 μM and in the presence of 0.1 μM of SAG, using DMEM (Dulbecco's Modified Eagle's Medium) with 10% fetal calf serum, as culture medium. The tests were carried out in quadruplicate. The plates were then incubated for 5 to 6 days at a temperature of 37° C. under an atmosphere of 5% CO2. The cells were then washed in a cold phosphate buffer (Phosphate Buffered Saline: PBS), and then lysed by sonication at 4° C. in 50 μL of solution containing 0.9% of NaCl and 0.2% of Triton X-100.

In series [2] the target is T1, mouse Smoothened receptor (Mus musculus, UniProt P56726).
T1 construct: expressed in transfected cells; host or cells: HEK293 cells, transiently transfected with Fugene6
T1 sequence (P56726 33-793): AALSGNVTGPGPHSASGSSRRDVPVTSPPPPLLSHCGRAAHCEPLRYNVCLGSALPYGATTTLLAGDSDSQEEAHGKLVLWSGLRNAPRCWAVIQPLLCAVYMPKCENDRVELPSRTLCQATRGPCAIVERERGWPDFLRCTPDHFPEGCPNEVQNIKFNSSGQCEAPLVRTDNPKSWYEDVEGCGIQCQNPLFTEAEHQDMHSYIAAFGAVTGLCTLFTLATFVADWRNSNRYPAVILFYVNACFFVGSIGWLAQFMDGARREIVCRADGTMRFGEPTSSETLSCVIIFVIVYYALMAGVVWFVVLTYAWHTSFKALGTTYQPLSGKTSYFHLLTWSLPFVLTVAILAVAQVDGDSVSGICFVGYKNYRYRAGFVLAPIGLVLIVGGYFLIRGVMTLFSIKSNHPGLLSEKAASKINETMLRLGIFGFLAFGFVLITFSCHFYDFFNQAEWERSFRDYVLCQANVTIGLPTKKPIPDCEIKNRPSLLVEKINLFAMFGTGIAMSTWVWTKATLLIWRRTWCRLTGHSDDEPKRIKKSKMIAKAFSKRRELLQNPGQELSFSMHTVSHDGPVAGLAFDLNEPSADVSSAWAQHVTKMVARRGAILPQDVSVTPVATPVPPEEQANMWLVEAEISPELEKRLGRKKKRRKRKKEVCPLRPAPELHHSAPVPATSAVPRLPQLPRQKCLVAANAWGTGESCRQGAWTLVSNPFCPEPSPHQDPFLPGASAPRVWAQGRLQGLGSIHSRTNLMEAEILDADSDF
In words: Competition with bodipycyclopamine binding on HEK293 cells transfected with mouse Smoothened. To be noted: 5 nM bodipycyclopamine, 2 hours at 37° C., read-out: IC50 (concentration which inhibits 50% of the bodipycyclopamine binding).
Method: HEK293 cells are seeded at 70 000 cells per well onto glass cover slips treated with poly-D-lysine in a 24-well plate, and transfected the following day with 0.25 μg of plasmid encoding the mouse Smoothened protein using 0.7 μl of Fugene6 (Roche biochemicals) according to the protocol described by the supplier (i.e. 0.7 μl of Fugene 6 are added to 24 μl of DMEM without any additive, in each well. The mixture is then incubated for 5 minutes at ambient temperature, 0.25 μg of plasmid DNA are added, and then the whole is mixed and incubated for 20 to 30 minutes at ambient temperature. 25 μl of the mixture thus prepared are then added directly to the cell culture medium, in each well of the plate containing 24 wells). After 48 hours, the culture medium is removed, and the cells are rinsed once with 1 ml of a PBS (Phosphate Buffered Saline) phosphate buffer solution, and then fixed for 20 minutes in the presence of an ice-cold solution of paraformaldehyde (PFA) at 4%, and 0.12 M glucose in a PBS phosphate buffer solution. The cells are then rinsed once and washed twice for 5 minutes with 1 ml of a PBS phosphate buffer solution containing 0.5% of fetal calf serum (PBS-FCS). […] The cells are then washed twice for 5 minutes with 1 ml of PBS-FCS, then brought into contact with 1 ml of a 1×PBS phosphate buffer solution. Finally, the cover slips are mounted on a glass slide in the presence of Vectashield containing DAPI (4′,6′-diamidino-2-phenylindole) so as to label the cell nuclei (Vector). […] The fluorescence intensity is then analyzed using the Simple PCI 6.2 software (Hamamatsu Corporation), and then related to the surface area of the nuclei present on the photograph.

Another series deals with Shh pathway. In words: In vivo inhibition of Shh-induced Patched mRNA in the subventricular zone of adult mouse brain (in situ hybridization). The following applies: adult mice, 4.5 pmol injected with recombinant Shh protein (290 ng) into the lateral ventricle, in situ hybridization 48 hours after injection. The protocol: Adult male Swiss mice (8 weeks old, 35 g) were anesthetized with a mixture of ketamine (Mérial®, Lyon, France) (0.1 mg/g) and xylazine (Bayer®, Puteaux, France) (0.01 mg/g) by intraperitoneal (i. p.) injection. The recombinant Shh protein (290 ng in a buffer solution containing 150 mM of sodium chloride NaCl and 0.5 mM of dithitheritol DTT), was diluted in 4.5 μl of a solution of 2-hydroxypropyl-beta-cyclodextrin (HBC) at 45% in PBS optionally containing 4.5 pmol of Cur61414 or of compound 24. This mixture was injected stereotaxically into the right lateral ventricle (LV) (n=5 animals for each group), at the following coordinates given relative to the Bregma axis: anteroposterior+0.2 mm; lateral+0.8 mm; dorsoventral−2.5 mm. The reference atlas for the stereotaxic coordinates is: The mouse brain in stereotaxic coordinates, Georges Paxinos, Keith B. J., Franklin, 2nd edition, 2001, Academic Press (San Diego, United States).
The detection of the Patched messenger RNA by in situ hybridization was carried out 48 hours after the injection, as described by Traiffort et al., Eur. J. Neursci, 1999, 11, 3199-3214.

For a further series, the system named is cells. To be noted: Borzillo et al., Curr. Top Med. Chem., 2005; cited from earlier work.
The mark [3] stands for this setting: Mus musculus, C3H 10T1/2, after induction with 0.1 μM SAG.

As for `COc1cc(C(=O)NC(=N)Nc2cccc(NC(=O)c3ccccc3)c2)cc(OC)c1OC` [Compound 15, N—(N-(3-benzamidophenyl)carbamimidoyl)-3,4,5-trimethoxybenzamide], the IC50 in series [1] (setting [3]) is 300 to 1000 nM. With `COc1cc(C(=O)NC(=N)Nc2ccc(Cl)c(NC(=O)c3ccccc3)c2)cc(OC)c1OC` [Compound 16, N—(N-(3-benzamido-4-chlorophenyl)carbamimidoyl)-3,4,5-trimethoxybenzamide], the IC50 in series [1] (setting [3]) lay in the range of 300 to 1000 nM. With `COc1cc(C(=O)NC(=N)Nc2ccc(Cl)c(NC(=O)c3ccc(-c4ccccc4)cc3)c2)cc(OC)c1OC` [Compound 17, N-(2-chloro-5-(3-(3,4,5-trimethoxybenzoyl)guanidino)phenyl)-biphenyl-4-carboxamide], the IC50 in series [1] (setting [3]) is 30 to 300 nM. The same measure, in the same setting: under `COc1cc(C(=O)NC(=N)Nc2cccc(NC(=O)c3ccc(N4CCOCC4)cc3)c2)cc(OC)c1OC` [Compound 18, 3,4,5-trimethoxy-N—(N-(3-(4-morpholinobenzamido)phenyl)-carbamimidoyl)benzamide] stands 30 to 300 nM. A word on the melting point: it is the temperature, or range, at which the solid turns liquid. In turn, `COc1cc(C(=O)NC(=N)Nc2cccc(-c3cc4ccccc4[nH]3)c2)cc(OC)c1OC` [Compound 19, N—(N-(3-(1H-indol-2-yl)phenyl)carbamimidoyl)-3,4,5-trimethoxybenzamide] displayed a melting point of 149 °C. Besides, the IC50 in series [1] (setting [3]) lay in the range of 30 to 300 nM.

As for `COc1ccc(NC(=O)c2cc(NC(=N)NC(=O)c3cc(OC)c(OC)c(OC)c3)ccc2Cl)cc1` [Compound 20, N—(N-(4-chloro-3-(4-methoxyphenylcarbamoyl)phenyl)-carbamimidoyl)-3,4,5-trimethoxybenzamide], the melting point is 105 °C. Besides, the IC50 in series [1] (setting [3]) lay in the range of 300 to 1000 nM. As to `COc1cc(C(=O)NC(=N)Nc2ccc(Cl)c(C(=O)Nc3ccccc3)c2)cc(OC)c1OC` [Compound 21, N—(N-(4-chloro-3-(phenylcarbamoyl)phenyl)carbamimidoyl)-3,4,5-trimethoxybenzamide], in series [1] (setting [3]), the IC50 was 300 to 1000 nM. On to `COc1cc(C(=O)NC(=N)Nc2ccc(C)c(C(=O)Nc3ccccc3)c2)cc(OC)c1OC` [Compound 22, 3,4,5-trimethoxy-N—(N-(4-methyl-3-(phenylcarbamoyl)phenyl)-carbamimidoyl)benzamide], for which the IC50 in series [1] (setting [3]) lay in the range of 30 to 300 nM. Consider `COc1cc(C(=O)NC(=N)Nc2cccc(NC(=O)c3ccc(-c4ccc(F)cc4)cc3)c2)cc(OC)c1OC` [Compound 23, 4′-fluoro-N-(3-(3-(3,4,5-trimethoxybenzoyl)guanidino)phenyl)-biphenyl-4-carboxamide], for which the IC50 in series [2] and in series [1] (setting [3]) was 3 to 30 nM throughout.

For `COc1cc(C(=O)NC(=N)Nc2ccc(C)c(NC(=O)c3ccc(-c4ccccc4)cc3)c2)cc(OC)c1OC` [Compound 24, N-(2-methyl-5-(3-(3,4,5-trimethoxybenzoyl)guanidino)phenyl)-biphenyl-4-carboxamide], the “Induction of the Ptc gene messenger RNA in the subventricular zone” value with Shh pathway was “disappears”. The IC50 in series [2] and in series [1] (setting [3]) was 3 to 30 nM in each case. `COc1cc(C(=O)NC(=N)Nc2cccc(-c3cn4ccsc4n3)c2)cc(OC)c1OC` [Compound 28]: the IC50 in series [1] (setting [3]) is 300 to 1000 nM. As to `COc1cc(C(=O)NC(=N)Nc2cccc(-n3ccc4ccccc43)c2)cc(OC)c1OC` [Compound 29, N—(N-(3-(1H-indol-1-yl)phenyl)carbamimidoyl)-3,4,5-trimethoxybenzamide], the IC50 in series [1] (setting [3]) is 300 to 1000 nM. In the case of `COc1cc(C(=O)NC(=N)Nc2ccc(C)c(NC(=O)c3ccc(-c4ccc(F)cc4)cc3)c2)cc(OC)c1OC` [Compound 30, 4′-fluoro-N-(2-methyl-5-(3-(3,4,5-trimethoxybenzoyl)-guanidino)phenyl)biphenyl-4-carboxamide], the IC50 in series [1] (setting [3]) lay in the range of 3 to 30 nM. In turn, `COc1cc(C(=O)NC(=N)Nc2ccc(Cl)c(NC(=O)Nc3ccccc3)c2)cc(OC)c1OC` [Compound 38, N—(N-(4-chloro-3-(3-phenylureido)phenyl)carbamimidoyl)-3,4,5-trimethoxybenzamide] yielded a melting point of 127 °C.

Turning to `COc1cccc(CN(C(=O)CC(C)(C)C)C2CC(C(=O)N3CCNCC3)N(Cc3ccc4c(c3)OCO4)C2)c1` (stereo not shown) [Cur61414, reference compound], the “Induction of the Ptc gene messenger RNA in the subventricular zone” value with Shh pathway is on record as “disappears”. Also, the figures for the IC50 in series [2] and in series [1] (setting [3]) were 30 to 300 nM and 300 to 1000 nM, respectively. Regarding `CS(=O)(=O)c1ccc(C(=O)Nc2ccc(Cl)c(-c3ccccn3)c2)c(Cl)c1` [GDC-0449, reference compound], in series [1] (setting [3]), the IC50 fell in the range of 3 to 30 nM.

With cyclopamine [reference compound], the IC50 in series [1] (after induction with 0.1 μM SAG) lay in the range of 300 to 1000 nM. Moreover, in the series on cells, the “concentrations cytotoxic for cells” value is recorded as “above 10 μM”.

Source of the values: patent US8889678B2, “Acyl guanidine derivatives modulating the hedgehog protein signaling pathway” (Centre National de la Recherche Scientifique, priority 2009, dated 2014).
